Measurements taken from patent US6645983B1, “Pharmaceutical compositions comprising 4-quinolones for treating cancers” (Laboratoire L. Lafon, priority 1999, dated 2003).

Key:
[1] = Determination of the maximum tolerated dose (MTD); details: B6D2F1/Jico, mouse, in vivo, ip; single intraperitoneal administration, doses 2.5 to 160 mg/kg, survival over 14 days
Procedure: The evaluation of the maximum tolerated dose was performed on 4- to 6-week-old B6D2F1/Jico mice. The compounds were administered intraperitoneally at increasing doses ranging from 2.5 to 160 mg/kg. The value of the MTD (expressed in mg/kg) is determined from the observation of the survival rate of the animals over a 14-day period after a single administration of the product under consideration. The change in weight of the animals is also monitored during this period. When the MTD value is greater than 160 mg/kg, the MTD value is considered as being 160 mg/kg by default.

U-87MG = test: MTT test, cytotoxic activity on non-clonogenic cell lines; type: cell-based; details: Homo sapiens, U-87 MG; 10^−5 M, 72 hours of incubation, control condition = 100%, mean value; read-out: mean optical density as percentage of control, U-87MG
Procedure: (§1) The principle of the MTT test is based on the mitochondrial reduction, by the metabolically active live cells, of the yellow-colored product MTT (3-(4,5-dimethylthiazol-2-yl)-2,5-diphenyltetrazolium bromide) to a blue-colored product, formazan. The amount of formazan thus obtained is directly proportional to the amount of live cells present in the culture well(s). This amount of formazan is measured by spectrophotometry.
(§2) The cell lines are maintained as a monolayer culture at 37° C. in stoppered culture dishes containing MEM 25 MM HEPES (Minimum Essential Medium) base medium. This medium is suited to the growth of a range of various mammalian diploid or primary cells. This medium is then supplemented with:
(§3) The 12 human cancer cell lines which were used were obtained from the American Type Culture Collection (ATCC, Rockville, Md., USA). These 12 cell lines are:
(§4) Experimentally, 100 μl of a cell suspension containing 20 000 to 50 000 (depending on the cell type used) cells/ml of culture medium are inoculated -in 96-well flat-bottomed multi-well plates and are left to stand in an incubator at 37° C., 5% CO2 and 70% humidity. After an incubation time of 24 hours, the culture medium is replaced with 100 μl of fresh medium containing either the various test compounds—at concentrations varying from 10^−5 to 10^−10 M—or the solvent having served for dissolving the products to be tested (control condition). […] The microplates are thus incubated for 3 hours at 37° C., then centrifuged for 10 minutes at 400 g. The yellowish solution of MTT is removed and the blue formazan crystals formed in the cell region are dissolved in 100 μl or DMSO. The microplates are then shaken for 5 minutes. […] Software incorporated in the spectrophotometer calculates the average optical density values and the standard deviation (SD) and standard error of mean (SEM) values.

LoVo = test: as above; type: cell-based; details: Homo sapiens, 10^−5 M, 72 hours of incubation, control condition = 100%, mean value, read-out: mean optical density as percentage of control, LoVo
Procedure: as §1, §2, §3, §4

T-47D = test: as above; type: cell-based; details: Homo sapiens, T47D; 10^−5 M, 72 hours of incubation, control condition = 100%, mean value; read-out: mean optical density as percentage of control, T-47D
Procedure: as §1, §2, §3, §4

MCF7 = test: as above; type: cell-based; details: Homo sapiens, 10^−5 M, 72 hours of incubation, control condition = 100%, mean value, read-out: mean optical density as percentage of control, MCF7
Procedure: as §1, §2, §3, §4

HCT-15 = test: as above; type: cell-based; details: Homo sapiens, 10^−5 M, 72 hours of incubation, control condition = 100%, mean value, read-out: mean optical density as percentage of control, HCT-16
Procedure: as §1, §2, §3, §4

A549 = test: as above; type: cell-based; details: Homo sapiens, 10^−5 M, 72 hours of incubation, control condition = 100%, mean value, read-out: mean optical density as percentage of control, A549
Procedure: as §1, §2, §3, §4

A-427 = test: as above; type: cell-based; details: Homo sapiens, 10^−5 M, 72 hours of incubation, control condition = 100%, mean value, read-out: mean optical density as percentage of control, A-427
Procedure: as §1, §2, §3, §4

PC-3 = test: as above; type: cell-based; details: Homo sapiens, 10^−5 M, 72 hours of incubation, control condition = 100%, mean value, read-out: mean optical density as percentage of control, PC-3
Procedure: as §1, §2, §3, §4

U-373MG = test: as above; type: cell-based; details: Homo sapiens, U373 MG; 10^−5 M, 72 hours of incubation, control condition = 100%, mean value; read-out: mean optical density as percentage of control, U-373MG
Procedure: as §1, §2, §3, §4

T24 = test: as above; type: cell-based; details: Homo sapiens, T-24; 10^−5 M, 72 hours of incubation, control condition = 100%, mean value; read-out: mean optical density as percentage of control, T24
Procedure: as §1, §2, §3
(§5) J82 (code ATCC: HTB-1) and T24 (code ATCC: HTB-4) which are two bladder cancers,
as §4

J82 = test: as above; type: cell-based; details: Homo sapiens, 10^−5 M, 72 hours of incubation, control condition = 100%, mean value, read-out: mean optical density as percentage of control, J82
Procedure: as §1, §2, §3, §5, §4

SW1088 = test: as above; type: cell-based; details: Homo sapiens, 10^−5 M, 72 hours of incubation, control condition = 100%, mean value, read-out: mean optical density as percentage of control, SW1088
Procedure: as §1, §2, §3
SW1088 (code ATCC: HTB-12) which is an astro-cytoma,
as §4

SMILES | MTD at 14 day [1] [mg/kg] | viability at 10 µM (U-87MG) [%] | viability at 10 µM (LoVo) [%] | viability at 10 µM (T-47D) [%] | viability at 10 µM (MCF7) [%] | viability at 10 µM (HCT-15) [%] | viability at 10 µM (A549) [%] | viability at 10 µM (A-427) [%] | viability at 10 µM (PC-3) [%] | viability at 10 µM (U-373MG) [%] | viability at 10 µM (T24) [%] | viability at 10 µM (J82) [%] | viability at 10 µM (SW1088) [%]
O=c1c(-c2ccccc2)c[nH]c2ccccc12 [CRL8326, 3-Phenyl-1,4-dihydro-4-quinolinone] | > 160 | 102 | 67.7 | 50.2 | 94.1 | 110 | 104 | 101 | 95.4 | 96.9 | 92.6 | 86.9 | 108
COc1ccc(-c2c[nH]c3ccccc3c2=O)cc1 [CRL8327, 3-(4-Methoxyphenyl)-1,4-dihydro-4-quinolinone] | > 160 | 89 | 47.3 | 79 | 90.7 | 87.5 | 71.5 | 77.5 | 87.4 | 58.7 | 187 | 85.1 | 99
COc1cccc2c(=O)c(-c3ccccc3)c[nH]c12 [CRL8328, 8-Methoxy-3-phenyl-1,4-dihydro-4-quinolinone] | 80 | 85.7 | 94.3 | 96 | 93.7 | 85.8 | 92.5 | 101 | 91.9 | 98.1 | 94.8 | 95.9 | 91
COc1ccc(-c2c[nH]c3c(OC)cccc3c2=O)cc1 [CRL8329, 8-Methoxy-3-(4-methoxyphenyl)-1,4-dihydro-4-quinolinone] | > 160 | 1.38 | 94.6 | 78.5 | 96.3 | 98 | 96.5 | 102 | 93.1 | 94 | 95.4 | 96.8 | 96.2
COc1ccc(-c2c[nH]c3cc(OC)cc(OC)c3c2=O)cc1 [CRL8337, 5,7-Dimethoxy-3-(4-methoxyphenyl)-1,4-dihydro-4-quinolinone] | > 160 | 84.4 | 93.3 | 79.4 | 76.5 | 98.5 | 96.9 | 106 | 92.8 | 95.6 | 102 | 90.9 | 84.9
COc1ccc(-c2cn(C)c3cc(OC)cc(OC)c3c2=O)cc1 [CRL8340, 5,7-Dimethoxy-3-(4-methoxyphenyl)-1-methyl-1,4-dihydro-4-quinolinone] | > 160 | 87.6 | 93 | 66.1 | 72.3 | 92.5 | 84 | 84.2 | 84.8 | 97.9 | 82.8 | 90.2 | 84
CCN(CC)C(=O)Cn1cc(-c2ccc(OC)cc2)c(=O)c2c(OC)cc(OC)cc21 [CRL8349, N,N-Diethyl-2-[5,7-dimethoxy-3-(4-methoxyphenyl)-4-oxo-1,4-dihydro-1-quinolinyl]acetamide] | > 160 | 98.3 | 104 | 91 | 97.4 | 91.2 | 96.2 | 90.7 | 98.6 | 66.7 | 95.1 | 93.3 | 100
COc1ccc(-c2cn(CCN(C)C)c3cc(OC)cc(OC)c3c2=O)cc1 [CRL8350, N-[3-(Dimethylamino)ethyl]-5,7-dimethoxy-3-(4-methoxyphenyl)-1,4-dihydro-4-quinolinone] | > 160 | 85.6 | 92 | 87.1 | 181 | 95.3 | 93 | 99.5 | 95.3 | 59.5 | 86.9 | 91.5 | 101
COc1ccc(-c2c[nH]c3c(OC)ccc(OC)c3c2=O)cc1 [CRL8351, 5,8-Dimethoxy-3-(4-methoxyphenyl)-1,4-dihydro-4-quinolinone] | 40 | 116 | 67 | 55 | 49 | 39.1 | 34.6 | 33.7 | 83.2 | 52.8 | 38.4 | 39.2 | 82.3
COc1cc(OC)c2c(=O)c(-c3ccccc3)c[nH]c2c1 [CRL8352, 5,7-Dimethoxy-3-phenyl-1,4-dihydro-4-quinolinone] | > 160 | 158 | 103 | 105 | 85.6 | 106 | 94.2 | 103 | 97.3 | 104 | 83.7 | 93 | 96.8
COc1ccc(OC)c2c(=O)c(-c3ccccc3)c[nH]c12 [CRL8353, 5,8-Dimethoxy-3-phenyl-1,4-dihydro-4-quinolinone] | > 160 | 107 | 85.5 | 87.2 | 49.6 | 55.7 | 42.3 | 52.5 | 81 | 54.5 | 68.6 | 79.1 | 74
